Source: patent US20100267753A1, “METHODS OF TREATING DISORDERS ASSOCIATED WITH PROTEIN KINASE CK2 ACTIVITY” (priority 2009, published 2010)

Tests used:
[1] = target: T1, DYRK2 (Homo sapiens, UniProt Q92630); experiment: Kinase panel IC-50, DYRK2; type: biochemical
T1 sequence (Q92630 1-601): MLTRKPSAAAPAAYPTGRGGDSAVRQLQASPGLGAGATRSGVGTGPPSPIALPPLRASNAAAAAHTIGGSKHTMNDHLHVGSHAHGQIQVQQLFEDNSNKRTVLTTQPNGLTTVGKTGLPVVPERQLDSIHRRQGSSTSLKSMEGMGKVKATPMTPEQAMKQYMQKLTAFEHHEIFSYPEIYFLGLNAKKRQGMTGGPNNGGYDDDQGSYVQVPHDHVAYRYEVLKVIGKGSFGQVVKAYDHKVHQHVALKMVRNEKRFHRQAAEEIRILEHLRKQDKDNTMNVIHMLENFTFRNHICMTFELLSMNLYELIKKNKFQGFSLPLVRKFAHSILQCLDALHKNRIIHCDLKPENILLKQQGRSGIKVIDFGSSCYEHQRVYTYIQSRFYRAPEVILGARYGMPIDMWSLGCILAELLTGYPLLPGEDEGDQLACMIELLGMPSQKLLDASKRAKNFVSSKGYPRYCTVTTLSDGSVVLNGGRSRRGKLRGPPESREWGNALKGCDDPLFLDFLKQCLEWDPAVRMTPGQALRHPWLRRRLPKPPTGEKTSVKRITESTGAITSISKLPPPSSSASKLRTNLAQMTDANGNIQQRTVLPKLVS

[2] = Pharmacokinetic summary across mouse, rat and dog; type: in vivo
Procedure: Particularly for chronic conditions, oral administration is preferred. Typical dosages for oral administration would be approximately 5-500 mg/kg per day.
For some embodiments, delivery of compound K by injection, such as intramuscular or intravenous, may be preferred. […] The dosage for injected delivery (IV) can be about half of the oral dosage since injection bypasses the absorption barriers that reduce oral bioavailability. For delivery by injection, lower doses such as 1-25 mg/kg per day may be used to achieve similar plasma levels of drug.

[3] = system: IL-8; experiment: IL-8 production in prostate cancer cells; type: cell-based
[4] = system: xenograft tumor; experiment: Xenograft tumor growth (pre-clinical); type: in vivo; details: single agent
[5] = system: HIV-1; experiment: U1 latent infection assay, antiviral (reverse transcriptase); type: cell-based; details: U1 latent infection assay
Procedure: Histocytic leukemia cell line U937, latently infected with HIV-1, are treated with TNFα to induce virus expression in the presence of test compound. Antiviral activity is determined as a reduction in reverse transcriptase after 72 hr incubation.
TI=TC/IC; also referred to as Therapeutic Index values (TI) or Antiviral Index (AI)
The histocytic leukemia cell line U937, latently infected with HIV-1, was treated with TNFα to induce virus expression in the presence of test compound. Antiviral activity was determined as a reduction in reverse transcriptase after 72 hr incubation. Temacrazine, an inhibitor of HIV transcription initiation, was used as the positive control for the assay.

[6] = target: HIPK3 (Homo sapiens, UniProt Q9H422); experiment: Kinase panel IC-50, HIPK3; type: biochemical
[7] = Phase I clinical study, safety and pharmacokinetics; type: in vivo, human
Procedure: Oral doses are administered twice daily for twenty-one consecutive days of a four week cycle. […] Response by RECIST is determined after every 2 cycles. Serial blood and plasma samples are collected on the first and final dosing days of Cycle 1 (i.e., Day 1 and Day 21) for pharmacokinetic analysis and for pharmacodynamic biomarker evaluations (specifically, total and phosphorylated forms of p21 and Akt).
Patients in Cohorts 1-3 were dosed twice daily (BID) with oral capsules.

[8] = Pharmacokinetics in dog (IV bolus or oral dose); type: in vivo; details: for AUC(0-inf) / Cmax / half-life / Vd: plasma; for half-life: read-out: Terminal T1/2 (converted); for Vd: read-out: Vdss
Procedure: (§1) The pharmacokinetics properties of drugs were investigated in three species, following an intravenous (IV) bolus or oral (PO) dose of Compound K at the dosages indicated in the chart. Blood samples were collected at predetermined times and the plasma separated. Plasma was separated from the blood samples collected at 5, 15 and 30 minutes and 1, 2, 4, 8 and 24 hours post-dose.
(§2) Drug levels were quantified by the LC/MS/MS method described below. Noncompartmental pharmacokinetic analysis was applied for intravenous administration. A linear trapezoidal rule was used to compute AUC(0-24). The terminal t1/2 and C0 were calculated using the last three and the first three data points, respectively
(§3) Bioanalysis was performed using a Quattro Micro LC/MS/MS instrument in the MRM detection mode, with an internal standard (1S). Briefly, 15 μL plasma samples were prepared for analysis using protein precipitation with 120 μL of acetonitrile. The supernatants were transferred into a 96 well plate and subjected to LC-MS/MS analysis using a Phenomenex Polar-RP HPLC column. The mobile phases were 10 mM NH4HCO3 in water (Solution-A) and 10 mM NH4HCO3 in methanol (Solution-B). The column was initially equilibrated with 25% Solution-B and followed with 100% Solution B over 5 minutes. […] Quantitation of the analytes was performed in the batch mode with two bracketing calibration curves according to the bioanalytical sample list.

[9] = system: HIV-1 isolates; experiment: PBMC assay, virus production; type: cell-based
Procedure: Acute infection of HIV-1 isolates (CXCR4-tropic HIV-1 Subtype B and CCR5-tropic HIV-1 Subtype) using fresh human PBMCs from multiple donors (PMA and IL-2 stimulated). Antiviral activity determined as a reduction in reverse transcriptase after 7-day incubation.
Antiviral activity was determined as a reduction in reverse transcriptase after 7-day incubation. AZT, a nucleoside analog reverse transcriptase inhibitor, was used as the positive control for the assay.

[10] = Pharmacokinetics in rat (IV bolus or oral dose); type: in vivo
Procedure: as §1, §2, §3

[11] = thirteen patients with solid tumors, oral BID
[12] = Dog, 1.6 mg/kg IV, different lot
[13] = Dog, 7.7 mg/kg PO, filled capsules, different lot
[14] = Dog, 8.2 mg/kg PO, filled capsules

Sequence of HIPK3 (Q9H422 whole entry, species assumed): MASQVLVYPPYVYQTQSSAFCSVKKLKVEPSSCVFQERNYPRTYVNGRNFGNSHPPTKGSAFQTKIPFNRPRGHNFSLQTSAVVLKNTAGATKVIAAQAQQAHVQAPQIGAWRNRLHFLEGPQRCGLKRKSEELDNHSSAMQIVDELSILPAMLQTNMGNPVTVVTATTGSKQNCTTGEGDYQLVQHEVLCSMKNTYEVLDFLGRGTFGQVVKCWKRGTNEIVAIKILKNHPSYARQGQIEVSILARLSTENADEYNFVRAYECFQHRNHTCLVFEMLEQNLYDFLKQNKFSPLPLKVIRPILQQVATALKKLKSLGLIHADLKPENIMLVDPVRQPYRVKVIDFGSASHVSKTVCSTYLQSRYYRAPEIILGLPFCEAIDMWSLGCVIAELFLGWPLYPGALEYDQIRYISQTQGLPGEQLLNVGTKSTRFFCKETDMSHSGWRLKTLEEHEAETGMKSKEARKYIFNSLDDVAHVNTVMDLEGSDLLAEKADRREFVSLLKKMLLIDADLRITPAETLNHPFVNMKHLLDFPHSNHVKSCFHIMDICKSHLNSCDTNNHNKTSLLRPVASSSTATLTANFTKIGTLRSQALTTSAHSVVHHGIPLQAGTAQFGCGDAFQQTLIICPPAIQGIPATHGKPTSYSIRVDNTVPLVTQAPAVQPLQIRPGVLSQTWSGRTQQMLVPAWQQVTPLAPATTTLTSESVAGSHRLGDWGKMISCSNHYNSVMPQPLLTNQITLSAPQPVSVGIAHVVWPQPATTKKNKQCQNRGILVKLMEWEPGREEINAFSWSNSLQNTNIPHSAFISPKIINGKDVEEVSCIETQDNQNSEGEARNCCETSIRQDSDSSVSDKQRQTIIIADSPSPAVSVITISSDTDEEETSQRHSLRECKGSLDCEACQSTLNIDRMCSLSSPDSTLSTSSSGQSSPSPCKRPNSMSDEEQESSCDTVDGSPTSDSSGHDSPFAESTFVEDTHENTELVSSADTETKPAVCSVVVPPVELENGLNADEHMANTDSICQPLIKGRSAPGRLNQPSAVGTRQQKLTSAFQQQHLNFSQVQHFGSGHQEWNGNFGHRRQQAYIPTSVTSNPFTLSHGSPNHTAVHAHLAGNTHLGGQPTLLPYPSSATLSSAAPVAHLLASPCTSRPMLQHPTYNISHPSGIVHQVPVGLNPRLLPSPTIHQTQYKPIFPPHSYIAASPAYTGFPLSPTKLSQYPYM

O=C(O)c1ccc2c(c1)nc(Nc1cccc(Cl)c1)c1ccncc12 [Compound K, 5-(3-chlorophenylamino)benzo[c][2,6]naphthyridine-8-carboxylic acid]
IC50 [1]: 91 nM | bioavailability ([2]; plasma, po, rat and dog, administered orally): 20 to 50% | half-life ([2]; plasma, rat and dog, oral): 5 to 12 h | clearance rate in vivo ([2]; rat and dog): relatively low clearance rate | half-life ([2]; rat, dog, plasma, other: injected (such as intramuscular or intravenous), when injected): 5 to 12 h | IL-8 production ([3]; ELISA (24 hr)): suppression of IL-8 production | IL-8 production ([3]; qRT-PCR (8 hr)): suppression of IL-8 production | xenograft tumor growth [4]: single-agent potency in suppressing xenograft tumor growth | inhibition of virus production [5]: no significant inhibition of virus production | IC50 [6]: 45 nM | dose-limiting toxicities (DLTs) ([7]; Phase I patients): No dose-limiting toxicities (DLTs) have yet been observed | drug related toxicity ([7]; Phase I patients): no drug related toxicity | plasma exposures ([7]; after first dose on day 1 and day 21, Cohorts 1-3 (90, 160, 300 mg BID)): Dose related plasma exposures were observed | accumulation ([7]; day 1 vs day 21): No accumulation was observed | half-life ([7]; human, in vivo, at steady state, patients, oral BID, read-out: terminal half life (converted)): ~25 h | drug-related significant adverse events of grade 3 or higher [7, 11]: no drug-related significant adverse events of grade 3 or higher reported | tolerability of oral doses [7, 11]: well tolerated | CLs [8, 12]: 15 mL/min/kg | CLs ([8]; Dog, 1.9 mg/kg IV): 12 mL/min/kg | Terminal T1/2 ([8]; Dog, 1.9 mg/kg IV): 8.3 h | % F0-inf [8, 13]: 41.8% | % F0-inf [8, 14]: 51.5% | AUC(0-inf) ([8]; dog, iv, 1.6 mg/kg): 1640 ng·h/mL | AUC(0-inf) ([8]; dog, po, 7.7 mg/kg): 3440 ng·h/mL | Cmax [8, 12]: 4440 ng/mL | half-life [8, 12]: 8.3 h | Vd [8, 12]: 11.3 L/kg | Cmax ([8]; Dog, 1.9 mg/kg IV): 5780 ng/mL | AUC(0-inf) ([8]; Dog, 1.9 mg/kg IV, 25 mM sodium phosphate buffer): 2540 ng·h/mL | Vd ([8]; Dog, 1.9 mg/kg IV): 8.9 L/kg | Cmax [8, 13]: 2730 ng/mL | half-life [8, 13]: 9.9 h | AUC(0-inf) [8, 14]: 5650 ng·h/mL | Cmax [8, 14]: 2180 ng/mL | half-life [8, 14]: 5.2 h | inhibition of virus production [9]: no significant inhibition of virus production | CLs ([10]; 5.2 mg/kg IV): 1.7 mL/min/kg | Terminal T1/2 ([10]; 5.2 mg/kg IV): 11.6 h | % F0-inf ([10]; 10.5 mg/kg PO): 47.8% | Cmax ([10]; plasma, 5.2 mg/kg IV): 38700 ng/mL | AUC(0-inf) ([10]; plasma, 5.2 mg/kg IV, 25 mM sodium phosphate buffer): 44300 ng·h/mL | Vd ([10]; plasma, 5.2 mg/kg IV, read-out: Vdss): 2 L/kg | Cmax ([10]; plasma, 10.5 mg/kg PO): 7370 ng/mL | AUC(0-inf) ([10]; plasma, 10.5 mg/kg PO, 25 mM phosphate buffer): 42300 ng·h/mL | half-life ([10]; plasma, 10.5 mg/kg PO, read-out: Terminal T1/2 (converted)): 12.3 h
